Data from PMC7022493, “Kinetic, Thermodynamic, and Crystallographic Studies of 2-Triazolylthioacetamides as Verona Integron-Encoded Metallo-β-Lactamase 2 (VIM-2) Inhibitor” (Biomolecules, 2020).

Experiments:
VIM-2 [1] = target: T1, VIM-2 (Pseudomonas aeruginosa, UniProt Q9K2N0); assay: VIM-2 enzyme-inhibition assay with nitrocefin as substrate (UV-Vis, 482 nm); type: biochemical, P. aeruginosa
T1 construct: made in house; host or cells: E. coli BL21 (DE3), plasmid pET24a-VIM-2
Procedure: The VIM-2 was overexpressed and purified as previously described. In brief, E. coli BL21 (DE3) cells were transelected with plasmid pET24a-VIM-2. A 10 mL overnight culture of these cells in lysogeny broth (LB) was used to inoculate of M9 media containing kanamycin (25 μg/mL). The cells were allowed to grow at 37 °C with shaking until the optical density at 600 nm (OD600) reached 0.6–0.8. VIM-2 expression was induced with 1 mM IPTG at 25 °C overnight. Cells were collected by centrifugation and lysed by sonication. The supernatant collected by centrifugation was dialyzed three times at 4 °C and loaded on a Q-Sepharose column. Bound protein was eluted with a 0–500 mM NaCl gradient in 30 mM Tris, pH 7.6. The further purification of crude VIM-2 was run though a G75 column (GE Healthcare, Boston, MA, USA) and eluted with 20 mM Tris, pH 7.6, containing 150 mM NaCl, and 5% β-mercaptoethanol. Enzyme purity was analyzed by SDS-PAGE, and determined the concentration by measuring the absorption at 280 nm (extinction co-efficient: 39,000 M^−1cm^−1) using the Nanodrop 2000 c spectrophotometer (Thermo Scientific, Waltham, MA, USA).
The percent inhibition (inhibition%, enzyme activity without inhibitor minus residual activity with 100 μM inhibitor) and IC50 (the inhibitor concentrations causing 50% decrease of enzyme activity) values were measured using a previously established enzyme-inhibition assay on an Agilent UV8453 UV−Vis spectrophotometer using 60 μM nitrocefin (monitoring at 482 nm) as a substrate. The 2-triazolylthioacetamides 1a–j, 2a–e, and 3a–e were dissolved with DMSO and diluted with ddH2O. The VIM-2 and nitrocefin were prepared with a Tris buffer (30 mM, pH 7.6). The final concentration of DMSO inhibition experiments was below 1%. The IC50 values were determined in triplicate against VIM-2, where the inhibitor concentrations were varied between 0 and 120 µM, and final concentrations VIM-2 was 0.6 nM. The tested VIM-2 and inhibitors were premixed at room temperature (30 mM Tris, pH 7.6), and then the substrate in the same buffer was added to the mixture, the initial rates of nitrocefin hydrolysis were recorded at each inhibitor concentration. The percentage inhibition was calculated by the equation inhibition% = 1 − (Vi/V0) and IC50 values were calculated by plotting the average inhibition% against inhibitor concentration and fitting of the data.
To evaluate 2-triazolylthioactamides, the VIM-2 was expressed and purified as previously described. The steady-state kinetic assays were conducted on an Agilent UV8453 spectrometer using nitrocefin (60 µM) as a substrate and monitoring its hydrolytic product at 482 nm.
IC50 values of 1a–j against VIM-2 were measured in 30 mM Tris, pH 7.6, in which the concentrations of inhibitors were varied between 0 and 120 µM. […] Moreover, clogP values of 1a–j (Table 1), as predicted by the ALOGPS 2.1 program, are in the range 1.88–3.05, which are similar with many marked antibacterial agents.

[2] = tested on: E. coli cells without VIM-2; assay: Antibacterial activity (MIC) against E. coli cells without VIM-2; type: cell-based; details: Escherichia coli, read-out: MIC of cefazolin
E. coli DH10B-VIM-2 = assay: MIC by broth micro-dilution, cefazolin alone or with inhibitors, E. coli producing VIM-2; type: cell-based; details: for Decrease in MIC of cefazolin: inhibitor 128 μg/mL
Procedure: The minimum inhibitory concentration (MIC) of antibiotics, both alone and in the presence of enzyme inhibitors, was determined using the broth micro-dilution method. E. coli DH10B containing plasmid pBCSK-VIM-2 grown in MH medium to OD600 = 0.45 were used as inocula, after an 84-fold dilution to 1 × 10^5 CFU/mL in MH medium. Cefazolin was dissolved in MH medium to prepare 1024, 512, 256, 128, 64, 32, 16, and 8 for E. coli producing VIM-2 stock solutions, respectively. Compounds 1a–j, 2a–e, and 3a–e were dissolved in DMSO and diluted with MH media to prepare 64 µg/mL stock solutions. The 50 μL prepared stock solutions with different cefazolin concentrations were diluted with a 50 μL inhibitor stock solution, then 100 μL inoculum was added sequentially. The final concentration of both the inhibitor and cefazolin were a quarter of the stock solution concentrations.
The ability of 2-triazolylthioactamides to restore the antimicrobial activity of cefazolin against the bacteria producing VIM-2 was investigated by determining the MICs of β-lactams in the presence and absence of inhibitors (16 μg/mL). E. coli DH10B containing plasmid pBCSK-VIM-2 was used to study these inhibitors. […] Although the strains treated with a high dose of 2-triazolylthioacetamides (128 μg/mL) were still resistant, they are promising in the future.

VIM-2 [3] = target: T1, VIM-2; assay: Binding affinity to VIM-2 by isothermal titration calorimetry (ITC); set-up: species or system P. aeruginosa; details: for TΔS / ΔH / Ka / ΔG: ITC, 298 K, Tris-HCl; for TΔS / ΔH / ΔG: pH 7.6; for Ka: pH 7.6, single binding site model; for ΔG: ∆G = ∆H − T∆S
Procedure: Binding affinity measurements were performed by ITC on a Malvern MicroCal-ITC200 at 298 K. The syringe stirring rate was 750 rpm and kept constant. A stock of VIM-2 and inhibitor (1b, 1c, and 1h) were prepared in Tris buffer (30 mM, pH 7.6) with 1% DMSO. The concentration of VIM-2 was 100 μM. Before the injections, the solution of enzyme and inhibitor were degassed by centrifugation (32,583× g, 5 min), respectively. Then, the prepared VIM-2 solution was transferred into the sample cell (210 μL), and the inhibitor (1 mM) in the syringe was titrated into the sample cell by 18 injections (0.5 μL for the first injection and 1.5 μL for the other 17 injections) with 120 s intervals per injection. The heat of dilution for the inhibitor was determined in the control experiment and subtracted from the integrated data before curve fitting. The data were fitted and analyzed with single binding sites using Origin 7.0 software, provided with the instrument.
To investigate the binding affinity of 2-triazolylthioactamides to VIM-2, 1b, 1c, and 1h as enzyme inhibitors were selected based on the inhibitory activity. […] After the best fitting by the single binding site model, the affinity constant (Ka), corresponding dissociation constant (Kd), and thermodynamic parameters (∆H, ΔS, and ΔG) were determined and listed in Table 3.

O=C(CSc1nnc(-c2ccccc2C(=O)O)[nH]1)Nc1ccc([N+](=O)[O-])cc1 [Compound 1e]
IC50 (VIM-2 [1]): 38.2 ± 0.3 µM

Cc1nnc(SCC2=C(C(=O)O)N3C(=O)[C@@H](NC(=O)Cn4cnnn4)[C@H]3SC2)s1 [cefazolin, reference compound]
MIC [2]: 1 µg/mL | MIC (E. coli DH10B-VIM-2; Escherichia coli, DH10BVIM2, read-out: MIC of cefazolin): 128 µg/mL

O=C(CSc1nnc(-c2ccccc2C(=O)O)[nH]1)Nc1ccccc1 [Compound 1a]
IC50 (VIM-2 [1]): 40.8 ± 0.3 µM

O=C(CSc1nnc(-c2ccccc2C(=O)O)[nH]1)Nc1ccc(Cl)cc1 [Compound 1d]
IC50 (VIM-2 [1]): 52.2 ± 0.5 µM

O=C(CSc1nnc(-c2ccccc2C(=O)O)[nH]1)Nc1ccccc1Cl [Compound 1g]
IC50 (VIM-2 [1]): 31.4 ± 0.4 µM | Decrease in MIC of cefazolin (E. coli DH10B-VIM-2): 32 fold

O=C(CSc1nnc(-c2ccccc2C(=O)O)[nH]1)NCc1ccccc1 [Compound 1f]
IC50 (VIM-2 [1]): 45.8 ± 0.2 µM

O=C(CSc1nnc(-c2ccccc2C(=O)O)[nH]1)Nc1nc2ccccc2s1 [Compound 1c]
Kd (VIM-2 [3]): 7.94 µM | TΔS (VIM-2 [3]): 5.34 kcal/mol | ΔH (VIM-2 [3]): -1.61 kcal/mol | Ka (VIM-2 [3]): 126000 M⁻¹ | ΔG (VIM-2 [3]): -6.95 kcal/mol | IC50 (VIM-2 [1]): 49.1 ± 0.1 µM | Decrease in MIC of cefazolin (E. coli DH10B-VIM-2): 16 fold

O=C(CSc1nnc(-c2ccccc2C(=O)O)[nH]1)Nc1ccccc1[N+](=O)[O-] [Compound 1i]
IC50 (VIM-2 [1]): 45.2 ± 0.1 µM

O=C(CSc1nnc(-c2ccccc2C(=O)O)[nH]1)Nc1cccc(Cl)c1 [Compound 1h]
Kd (VIM-2 [3]): 6.41 µM | TΔS (VIM-2 [3]): 1.98 kcal/mol | ΔH (VIM-2 [3]): -5.10 kcal/mol | Ka (VIM-2 [3]): 156000 M⁻¹ | ΔG (VIM-2 [3]): -7.08 kcal/mol | IC50 (VIM-2 [1]): 20.6 ± 0.1 µM | Decrease in MIC of cefazolin (E. coli DH10B-VIM-2): 32 fold

O=C(CSc1nnc(-c2ccccc2C(=O)O)[nH]1)Nc1nc2ccccc2[nH]1 [Compound 1b]
Kd (VIM-2 [3]): 8.62 µM | TΔS (VIM-2 [3]): 4.26 kcal/mol | ΔH (VIM-2 [3]): -2.66 kcal/mol | Ka (VIM-2 [3]): 116000 M⁻¹ | ΔG (VIM-2 [3]): -6.92 kcal/mol | IC50 (VIM-2 [1]): 58.6 ± 0.1 µM | Decrease in MIC of cefazolin (E. coli DH10B-VIM-2): 16 fold

O=C(CSc1nnc(-c2ccccc2C(=O)O)[nH]1)Nc1cccc([N+](=O)[O-])c1 [Compound 1j]
IC50 (VIM-2 [1]): 57.6 ± 0.4 µM
